Experimental data as given in US20250041286A1, “CANCER TREATMENT USING KETOTIFEN IN COMBINATION WITH A CHECKPOINT INHIBITOR” (Materia Therapeutics Inc., priority 2021, published 2025).
“Also recorded” adds a separate entry of the source.

How the values were obtained:
MCA205 tumors [1] = assay: Vessel normalization, NG2/CD31 pericyte coverage and open lumen fraction; assay type: in vivo, mouse
Description: To assess whether MC inhibition could normalize the structure of tumor blood vessels, which can further improve perfusion, the effect of ketotifen on vascular permeability was assessed. […] Instead, an upregulation of IFN-γ transcription levels in MCA205 tumors following 10 mg/kg ketotifen treatment was observed (FIG. 1D). IFNγ is an angiostatic protein whose concentration in the TME has been related to vessel normalization and reduced vessel leakiness.

MCA205 tumors [2] = assay: Ultrasound shear wave elastography of tumor stiffness; assay type: in vivo, mouse; conditions: 10 mg/kg daily ketotifen, dose that reduced stiffness the most
Description: (§1) The mechanotherapeutic potential of ketotifen in reducing matrix stiffness was primarily assessed non-invasively and longitudinally using ultrasound elastography. Briefly, assessment of tumor elastic modulus was […] via shear wave elastography using a Philips EPIQ Elite Ultrasound scanner with an eL18-4 linear array, approved for clinical scanning was performed as described in previous study. Elastic modulus values of the areas of the region of interest (ROI) with the highest shear wave quality were obtained. The elastic modulus value presented is the average within the tumor region. Shear wave imaging of MCA205 tumors was performed prior to ketotifen treatment on day 7, to determine baseline level of tumor stiffness, after three days of treatment (day 11), and on the last day of treatment just before tumor removal (day 15). Ultrasound imaging of K7M2wt tumors was performed on day 24, 28, and 31. The effect of ketotifen on chemo-immunotherapy combination with regards to MCA205 tissue elasticity was assessed on day 7 before the first cycle of doxorubicin+anti-PD-L1 treatment, one day after second cycle (day 11) and two days after the last cycle (day 15). Ultrasound imaging of K7M2wt tumors was performed on day 22 (i.e., four days post daily ketotifen and before first cycle of combination treatment) and upon completion of treatment (day 32).

K7M2wt tumors [3] = assay: as above; assay type: in vivo, mouse; conditions: 10 mg/kg daily ketotifen
Description: as §1

[4] = Mouse body, thymus and spleen weight at conclusion of study; assay type: in vivo; conditions: highest dose (of 1, 5, 10, 25 mg/kg), i.p. once a day for 8 days
Description: Each treatment group of 4-7 mice received subtherapeutic doses of ketotifen (1, 5, 10 and 25 mg/kg) for a period of 8 days. Ketotifen fumarate salt was dissolved in sterilized normal saline (0.9% NaCl in ddH2O, w/v). Ketotifen 1 mg/kg, 5 mg/kg, 10 mg/kg, 25 mg/kg or equal volume of diluent (control group) was administered by intraperitoneal injection (i.p.) once a day for 8 days. Ketotifen treatment for MCA205 and K7M2wt tumor models started when the average tumor volume reached 60 mm^3 and 150 mm^3, respectively, and completed at 600 mm^3. At study endpoint, primary tumors were surgically excised and stored in 1×PBS at −80° C. until further processing. Planar dimensions (x, y) of tumor were monitored every 2-3 days using a digital caliper and tumor volume was estimated from the volume of an ellipsoid and assuming that the third dimension, z, is equal to sqrt(x y).
Following treatment, tumor growth (tumor volume and mass, see, FIGS. 2A and 2C for MCA205 tumors, and FIGS. 2B and 2D for K7M2wt tumors) was evaluated in the mice of each sarcoma group.

MCA205 tumors [5] = assay: Hyaluronan evaluation, HABP1 immunofluorescence; assay type: in vivo, mouse; conditions: daily ketotifen 10 mg/kg
Description: (§2) Besides collagen, other structural components of tumor stroma can exert pressure and deform vessels. Such an example is the hyaluronan (e.g., hyaluronic acid), which binds to and retains excessive fluid generating gel-like regions within the tissue. Therefore, hyaluronic acid staining was performed in both sarcoma mouse models.
(§3) Tumors were removed from mice, washed twice in 1×PBS for 10 min, and incubated with 4% PFA overnight at 4° C. The fixative was aspirated, and samples were washed twice in 1×PBS for 10 min. Tissue samples were dehydrated in successive ethanol steps and xylene followed by paraffin embedding. Serial sections ([…]) of paraffin-embedded tissues were produced using the microtome (Accu-Cut SRM 200 Rotary Microtome, SAKURA), flattened out into water, and allowed to dry overnight at 37° C. Sections were then deparaffinized and rehydrated as routinely processed for histology. Tissue sections were subjected to antigen retrieval (microwave heat treatment with TriSodium Citrate, pH 6, for 20 min), washed with 1×TBS/0.025% Triton X-100 (TBS-T), and incubated in blocking solution (2% BSA, 0.2% Triton 100×) for 2 hours at room temperature. […] Hyaluronan was detected following incubation with streptavidin-FITC conjugate (Invitrogen, 1:1000) and nuclei were stained with DAPI stain at room temperature for 1 hour in the dark. […]

K7M2wt tumors [6] = assay: Hyaluronan evaluation, HABP1 immunofluorescence; assay type: in vivo, mouse; conditions: daily ketotifen 10 mg/kg
Description: as §2, §3

MCA205 tumors [7] = assay: qPCR mRNA expression levels in tumors; assay type: in vivo, mouse; conditions: 10 mg/kg ketotifen
Description: Total RNA was isolated from breast tumors according to the standard Trizol-based protocol (Invitrogen), and cDNA synthesis was performed using reverse transcriptase III (RT-III) enzyme and random hexamers (Invitrogen). Real-time polymerase chain reaction was performed using Sybr Fast Universal Master Mix (KAPA). Reactions were performed using a CFX-96 real-time PCR detection system (BioRad) at the following conditions: 95° C. for 2 minutes, 95° C. for 2 seconds, 60° C. for 20 seconds, 60° C. for 1 second, steps 2-4 for 39 cycles. Real-time PCR analysis and calculation of changes in gene expression between compared groups was performed using the ΔΔ^Ct method. Relative gene expression was normalized based on the expression of β-actin. For qPCR analysis, 3-5 biological samples were used per treatment and 3 technical replicates for each sample.
mRNA expression levels were evaluated in both mouse sarcoma models by qPCR, as described above.
RT-qPCR, as described above, […].

MCA205 tumors [8] = assay: Mast cell tryptase staining of tumors; assay type: in vivo, mouse; conditions: 10 mg/kg ketotifen
Excerpt: (§4) Finally, to confirm the effect of ketotifen on MC inactivation, ketotifen-treated tumors were stained for tryptase, a serine protease unique to MCs with a role in myofibroblast proliferation and collagen synthesis.

K7M2wt tumors [9] = assay: Mast cell tryptase staining of tumors; assay type: in vivo, mouse; conditions: 10 mg/kg ketotifen
Excerpt: as §4

CN1CCC(=C2c3ccccc3CC(=O)c3sccc32)CC1 [ketotifen]
fraction of vessels with open lumen (MCA205 tumors [1]; MCA205 tumors, CD31 image analysis): increase the fraction of vessels with open lumen
pericyte coverage of the tumor vasculature (NG2/CD31 colocalization) (MCA205 tumors [1]; ketotifen 5, 10 and 25 mg/kg compared to the lowest dose and untreated control): increase
Young's modulus (tissue stiffness) (MCA205 tumors [2]): 20 kPa
tissue stiffness (Young's modulus) (K7M2wt tumors [3]): similarly benefited
splenomegaly [4]: caused splenomegaly
expression of hyaluronan protein (HABP1 staining) (MCA205 tumors [5]): reduced
expression of hyaluronan protein (HABP1 staining) (K7M2wt tumors [6]): reduced
mRNA expression of ICAM (MCA205 tumors [7]): increased
mRNA expression of P-selectin (P-sel) (MCA205 tumors [7]): increased
mRNA levels of IFN-γ (MCA205 tumors [7]): upregulated; also recorded: upregulation
mRNA levels of VEGF (MCA205 tumors [7]): without affecting; also recorded: a reduction in VEGF transcripts was not observed
mRNA levels of collagen I encoding gene (Col1A1) (MCA205 tumors [7]): reduced the mRNA levels of collagen I encoding gene (Col1A1) and connective tissue growth factor (CTGR), although not to a statistically significant extent
mRNA levels of connective tissue growth factor (CTGR) (MCA205 tumors [7]): reduced the mRNA levels of collagen I encoding gene (Col1A1) and connective tissue growth factor (CTGR), although not to a statistically significant extent
mRNA levels of hyaluronan synthase 2 (Has2) (MCA205 tumors [7]): no effect
mRNA levels of hyaluronan synthase 3 (Has3) (MCA205 tumors [7]): no effect
tryptase levels (MCA205 tumors [8]): reduced
tryptase levels (K7M2wt tumors [9]): reduced
